Data reported in patent US20250263383A1, “NOVEL INHIBITORS OF GUANOSINE MONOPHOSPHATE SYNTHETASE AS THERAPEUTIC AGENTS” (University of Southern California, priority 2018, published 2025).

Tests used:
HL-60(TB) cells = experiment: Sulforhodamin B viability assay; assay type: cell-based; conditions: Leukemia, negative values represent cell mortality percentage
NCI-H23 cells = experiment: Sulforhodamin B viability assay; assay type: cell-based; conditions: NCI-H23, Non-Small Cell Lung Cancer; negative values represent cell mortality percentage
HT29 cells = experiment: Sulforhodamin B viability assay; assay type: cell-based; conditions: HT29, Colon Cancer; negative values represent cell mortality percentage
SF-539 cells = experiment: Sulforhodamin B viability assay; assay type: cell-based; conditions: SF-539, CNS Cancer; negative values represent cell mortality percentage
SK-MEL-5 cells = experiment: Sulforhodamin B viability assay; assay type: cell-based; conditions: SK-MEL-5, Melanoma; negative values represent cell mortality percentage
OVCAR-5 cells = experiment: Sulforhodamin B viability assay; assay type: cell-based; conditions: OVCAR-5, Ovarian Cancer; negative values represent cell mortality percentage
UO-31 cells = experiment: Sulforhodamin B viability assay; assay type: cell-based; conditions: UO-31, Renal Cancer; negative values represent cell mortality percentage
BT-549 cells = experiment: Sulforhodamin B viability assay; assay type: cell-based; conditions: BT-549, Breast Cancer; negative values represent cell mortality percentage
[1] = system: eight distinct cancer cell lines; experiment: Sulforhodamin B viability assay, all cell lines; assay type: cell-based; conditions: across all the eight cell lines tested
recombinant human GMPS = recombinant human GMPS (Homo sapiens (Human), UniProt P49915); experiment: enzymatic assay against recombinant GMPS, UV absorbance at 290 nm; conditions: for IC50 against GMPS, in words: recombinant GMPS; for IC50: recombinant human GMPS
recombinant human GMPS, sequence (P49915 whole entry): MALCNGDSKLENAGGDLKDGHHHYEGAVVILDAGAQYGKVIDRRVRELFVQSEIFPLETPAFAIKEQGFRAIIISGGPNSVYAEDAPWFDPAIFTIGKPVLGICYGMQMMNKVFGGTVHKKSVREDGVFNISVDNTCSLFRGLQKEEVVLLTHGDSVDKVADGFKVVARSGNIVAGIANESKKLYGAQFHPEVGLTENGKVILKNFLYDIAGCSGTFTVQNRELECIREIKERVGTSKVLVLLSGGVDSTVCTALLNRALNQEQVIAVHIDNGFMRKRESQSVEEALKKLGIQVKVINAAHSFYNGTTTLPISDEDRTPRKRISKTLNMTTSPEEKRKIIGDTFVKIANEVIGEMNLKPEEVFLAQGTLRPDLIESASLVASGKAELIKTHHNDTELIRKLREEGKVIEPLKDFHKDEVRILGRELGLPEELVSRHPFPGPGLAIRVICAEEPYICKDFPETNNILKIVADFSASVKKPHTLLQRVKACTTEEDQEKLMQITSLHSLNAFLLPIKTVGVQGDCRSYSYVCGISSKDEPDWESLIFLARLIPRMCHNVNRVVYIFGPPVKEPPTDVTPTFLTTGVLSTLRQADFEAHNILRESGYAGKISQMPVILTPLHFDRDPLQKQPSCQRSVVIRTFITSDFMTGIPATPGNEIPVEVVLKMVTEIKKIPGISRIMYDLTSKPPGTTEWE
Experimental: The potency of the five compounds was tested against recombinant GMPS in an enzymatic assay by monitoring UV absorbance at 290 nm and by determining an IC50.

## C#CCOc1cccc(Nc2ncnc3ccc(NC(=O)CCl)cc23)c1 [Compound 1, 2-chloro-N-(4-((3-(prop-2-yn-1-yloxy)phenyl)amino)quinazolin-6-yl) acetamide]
HL-60(TB) cells
  Cell survival: −58.4%
NCI-H23 cells
  Cell survival: −66.8%
HT29 cells
  Cell survival: −78.6%
SF-539 cells
  Cell survival: −86.6%
SK-MEL-5 cells
  Cell survival: −92.8%
OVCAR-5 cells
  Cell survival: −70.1%
UO-31 cells
  Cell survival: −87.8%
BT-549 cells
  Cell survival: −68.9%
[1]
  cell death: > 50%

## COc1cccc(Nc2ncnc3ccc(NC(C)=O)cc23)c1 [Compound 3, N-(4-((3-methoxyphenyl)amino)quinazolin-6-yl) acetamide]
Recombinant human GMPS
  IC50 against GMPS, in words: less active
  IC50: > 1 µM

## C#CCOc1cccc(C(=O)Nc2cccc(NC(=O)CCl)c2)c1 [Compound 5, N-(3-(2-chloroacetamido)phenyl)-3-(prop-2-yn-1-yloxy)benzamide]
Recombinant human GMPS
  IC50 against GMPS, in words: less active
  IC50: > 1 µM
